Target: CYP3A4 (Homo sapiens, UniProt P08684)
Test: Compound 1 metabolism / metabolite formation by recombinant CYP3A4
Format: in vitro ADME
Set-up: purchased Gentest Corp. (Woburn, Mass.); host or cells: insect cells (microsomal preparation)
Protocol: The metabolism of Compound 1 was determined by the disappearance of Compound 1 or the appearance of Compound 1 metabolites in reaction mixtures as compared to respective controls. Compound 1 was incubated in the reconstituted in vitro reaction systems containing pooled human liver S9 fractions, microsomal preparations, or recombinant hepatic CYP forms, including CYP1A2, CYP2C9, CYP2C19, CYP2D6, CYP2E1, and CYP3A4. The reaction mixture (total volume of 250 μL) contained 0.5 mg of liver microsomal protein, 50 or 25 pmol of recombinant CYP, and Compound 1 (50-80 μM) in 50 mM Tris buffer containing 15 mM MgCl2 (pH 7.4). After incubating at 37° C. with gentle shaking for 1 minute, the reaction was initiated by adding 25 μL of NADPH solution (20 mg/mL), and was carried out for 1 hour. The reaction was terminated by quickly cooling the test tube on ice, followed by the addition of an equal volume of 100% methanol. The samples were centrifuged in a desktop centrifuge at 14,000 rpm for 5 minutes, and the supernatants were filtered through syringe filters (13 mm, 0.45 μm). The filtrates were subjected to analysis using LC/MS (ion trap) or LC/MS/MS.
1. LC/MS (LCQ ion trap mass spectrometer, Finnigan Corp., San Jose, Calif.): Hewlett Packard 1100 HPLC system (Waldbronn, Germany) consisted of a binary pump, an autosampler, a column compartment unit, and an online variable wavelength UV detector (VWD). The detector was monitored at 270 nm, which is the UVmax of Compound 1 predetermined by scanning between 225-400 nm using a photodiode array detector (PDA). The metabolites were separated on a Hewlett Packard Eclipse C18 column (150×2.1 mm). The mobile phases were 10 nmM ammonium acetate at pH 4.8 (A) and acetonitrile (B). The gradient (B) was 10% (0-6 minutes), 22% (12-22 minutes), 90% (25-30 minutes), and 10% (31 minutes and after). The flow rate was 0.25 mL/minute. Software Navigator (Version 1.2, Finnigan Corp.) was used to control the HPLC and MS and to acquire the data. […]

Chain of CYP3A4 (P08684 whole entry): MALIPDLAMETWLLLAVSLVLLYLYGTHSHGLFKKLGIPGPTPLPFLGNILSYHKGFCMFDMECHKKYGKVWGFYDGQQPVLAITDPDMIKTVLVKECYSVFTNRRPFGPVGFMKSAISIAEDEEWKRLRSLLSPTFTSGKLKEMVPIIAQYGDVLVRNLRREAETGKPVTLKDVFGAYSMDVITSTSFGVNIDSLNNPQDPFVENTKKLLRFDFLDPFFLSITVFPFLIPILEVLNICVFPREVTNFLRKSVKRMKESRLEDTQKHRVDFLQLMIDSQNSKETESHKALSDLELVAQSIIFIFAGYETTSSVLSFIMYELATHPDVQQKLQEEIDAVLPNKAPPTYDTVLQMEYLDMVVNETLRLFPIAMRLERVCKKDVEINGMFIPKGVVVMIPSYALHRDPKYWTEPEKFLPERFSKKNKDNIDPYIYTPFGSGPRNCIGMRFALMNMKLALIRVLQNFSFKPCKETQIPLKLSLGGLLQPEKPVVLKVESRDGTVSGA

CNC(=O)Cc1ccc2ccn(C3CCN(CCc4ccccc4F)CC3)c2c1 [Compound 1, N-methyl-[1-[1-(2-fluorophenethyl)piperidine-4-yl]-1H-indol-6-yl] acetamide]
metabolism of Compound 1 by CYP3A4 (in words) (approximately 50 μM of Compound 1): metabolized | Rel. Amount (%) (recombinant CYP3A4, estimated by UV absorbance at 270 nm, metabolite formed or Compound 1 left after 1 hour with NADPH): 23%

From patent publication US20050033056A1, “Hydroxylated indole derivatives and uses thereof” (priority 2001, published 2005)
